Reference: patent US20200163984A1, “USE OF ISOVALERYL SPIRAMYCIN I, II AND/OR III IN MANUFACTURING MEDICAMENT FOR TREATING AND/OR PREVENTING TUMOR, AND MEDICAMENT” (SHENYANG FUYANG PHARMACEUTICAL TECHNOLOGY CO., LTD., priority 2017, published 2020)
Converted amounts (≈) assume the structure as drawn.

Columns and labels:
[1] = system: transplanted tumor of mouse Lewis lung cancer; assay: Transplanted tumor of mouse Lewis lung cancer; details: for Tumor Volume (mm3) (d 1) / Tumor Volume (mm3) (d30) / Relative Tumor Proliferation Rate (T/C) / Relative Tumor Volume (RTV): title prints KM mouse H22 cells; for Tumor Volume (mm3) (d30): d 30; for Body Weight (g) (d1) / Body Weight (g) (d 15): mouse, in vivo
Method: Lewis lung cancer cells were cultured in a RPMI 1640 culture medium containing 10% fetal bovine serum at 37° C. in a 5% CO2 incubator. The cells in the logarithmic growth phase were subjected to trypsinization with 0.25% trypsin, then the cells were collected to be centrifugated to remove the obtained supernatant, then were washed twice with sterile normal saline. […] The Lewis cells were adjusted to 1×10^7/mL in concentration and stored in ice water. 75% ethanol was used to disinfect the skin under the right armpits of the mice, and each C57BL/6 mouse was soon inoculated subcutaneously with 0.2 ml of the cells at its right armpit.
In the Lewis lung cancer model, the mice inoculated with the tumor were randomly divided into groups with 10 mice in each group the next day of inoculation. The groups included: a model control group, a positive drug cyclophosphamide control group (CTX, 30 mg/kg), isovaleryl spiramycin I groups with doses of 13, 26 and 52 mg/kg; isovaleryl spiramycin II groups with doses of 13, 26 and 52 mg/kg; isovaleryl spiramycin III groups with doses of 13, 26 and 52 mg/kg. Each group was continuously administered intragastrically for 15 days with a dose of 20 ml/kg.
The tumor-bearing mice were weighed and sacrificed the next day after the last administration. The subcutaneous tumors were dissected and weighed. The average tumor weight of each group is calculated, and the tumor inhibition rate is calculated.
Tumor inhibition rate=(1−T/C)×100%
T: average tumor weight of the drug-administered group; C: average tumor weight of the blank control group.

[2] = system: transplanted tumor of human breast cancer cell MDA-MB-231; assay: MDA-MB-231 transplanted tumor in nude mice
Method: Then cell concentration was adjusted to 1×10^7/ml with matrigel, then each nude mouse was inoculated subcutaneously with 0.2 ml of cells at its right armpit and recorded as the first day of inoculation. When the tumor grows to be greater than or equal to 100 mm^3, the mice were randomly divided into 11 groups with 6 mice in each group: a model group, a cyclophosphamide group, isovaleryl spiramycin I groups with doses of 25, 50 and 100 mg/kg, isovaleryl spiramycin II groups with doses of 25, 50 and 100 mg/kg, and isovaleryl spiramycin III groups with doses of 25, 50 and 100 mg/kg. Each group was continuously administered intragastrically for 30 days with a dose of 20 ml/kg. The mice were sacrificed the next day after drug withdrawal and the indicators were tested. The long diameter and short diameter of the tumor, and the body weight of each mouse were recorded every 3 days from drug administration to nude mouse sacrifice.
The body weight of the nude mice and the long diameter (a) and short diameter (b) of the transplanted tumor were measured every 3 days, and the tumor volume (v), relative tumor volume (RTV) and relative tumor proliferation rate (T/C) are calculated respectively according to the following formulas, wherein V=a×b^2/2; RTV=V/V0 (V0 is the tumor volume before administration, V is the tumor volume before sacrifice), and T/C (%)=treatment group RTV/model control group RTV×100%.
Each mouse was weighed and sacrificed. After the tumor was completely stripped off from the body of the mouse, the non-tumor tissues such as blood stains and fat were removed to weigh the tumor and calculate the tumor growth inhibition rate. The average tumor weight of each group of mice is used as an indicator of efficacy. Tumor growth inhibition rate (%)=(1−the average tumor weight of the treatment group/the average tumor weight of the model group)×100%.

[3] = system: human pancreatic cancer cell PANC-1; details: PANC-1, MTT, 48 hours
Method: (§1) The purpose of the assay is to evaluate the in vitro cell proliferation inhibition or cytotoxic activity of a tested sample.
(§2) MCF-7, MDA-MB-231, HepG2, A549, H460, H1299, 786-0, 769-P, U251, A172, HeLa, PC3, PANC-1, TE-1, SGC7901, and HT-29 were adherent tumor cells. The adherent tumor cells in the logarithmic growth phase were selected and digested with trypsin, then were prepared into a 4 to 5×10^4/ml cell suspension by a medium containing 10% fetal bovine serum. And the cell suspension was inoculated in a 96-well culture plate, and each well was 100 μL. The 96-well culture plate was cultured at 37° C. and 5% CO2 for 24 hours. The experimental group was replaced with a new culture medium containing different concentrations of the sample to be tested, namely, isovaleryl spiramycin I, isovaleryl spiramycin II, or isovaleryl spiramycin III, while the control group was replaced with a culture medium containing the same volume of solvent. Each group was set up with 3 parallel wells that were cultured at 37° C. and 5% CO2 for 48 hours. After the supernatant was removed, the wells were washed carefully for 3 times with PBS. And 100 μL of freshly prepared culture medium containing 0.5 mg/ml MTT was added to each well for continuous incubation for 4 hours at 37° C. After the supernatant was removed carefully, 150 μL of DMSO was added to each well, and after the material was mixed for 10 minutes with a micro-oscillator, the optical density value was measured at 492 nm with a microplate reader.
(§3) The inhibition rate of the medicament on tumor cell growth is calculated according to the following formula:
(§4) Tumor cell growth inhibition rate (%)=[A492 (negative control)−A492 (dosing group)]/A492 (negative control)×100%
(§5) And the half-inhibitory concentration (IC50) of the sample is determined therefrom.

[4] = system: human renal clear cell adenocarcinoma cell 786-O; details: MTT, 48 hours
Method: as §1, §2, §3, §4, §5

[5] = system: human breast cancer cells MCF-7; details: MCF-7, MTT, 48 hours
Method: as §1, §2, §3, §4, §5

[6] = system: human prostate cancer cell PC3; details: PC3, MTT, 48 hours
Method: as §1, §2, §3, §4, §5

[7] = system: human glioblastoma cell A172; details: A172, MTT, 48 hours
Method: as §1, §2, §3, §4, §5

[8] = MDA-MB-231, 25 mg/kg (low dose) i.g. 30 days
[9] = MDA-MB-231, 50 mg/kg (medium dose) i.g. 30 days
[10] = MDA-MB-231, 100 mg/kg (high dose) i.g. 30 days

- mouse weight compared with the model group ([2]; mouse, in vivo): no significant changes
- IC50 [3]: 13.18 ± 0.23 µg/mL (≈ 13.4 µM)
- IC50 [4]: 10.52 ± 0.56 µg/mL (≈ 10.7 µM)
- IC50 [5]: 32.44 ± 1.18 µg/mL (≈ 33 µM)
- IC50 [6]: 16.37 ± 0.27 µg/mL (≈ 16.6 µM)
- IC50 [7]: 16.17 ± 0.54 µg/mL (≈ 16.4 µM)
SMILES: CCC(=O)O[C@@H]1CC(=O)O[C@H](C)C/C=C/C=C/[C@H](O[C@H]2CC[C@H](N(C)C)[C@@H](C)O2)[C@H](C)C[C@H](CC=O)[C@H](O[C@@H]2O[C@H](C)[C@@H](O[C@H]3C[C@@](C)(O)[C@@H](OC(=O)CC(C)C)[C@H](C)O3)[C@H](N(C)C)[C@H]2O)[C@H]1OC [Isovaleryl spiramycin III, isovaleryl spiramycin III]
- growth of Lewis lung cancer in mice ([1]; 13, 26 and 52 mg/kg i.g. 15 days): significantly inhibit
- Tumor Volume (mm3) (d 1) ([1]; dose 12.5 mg/kg): 105.02 ± 31.31 mm3
- Tumor Volume (mm3) (d30) ([1]; dose 12.5 mg/kg): 1270.87 ± 198.05 mm3
- Relative Tumor Proliferation Rate (T/C) ([1]; dose 12.5 mg/kg): 84.57
- Relative Tumor Volume (RTV) ([1]; dose 12.5 mg/kg): 13.54 ± 6.73
- Inhibition Rate (%) ([1]; dose 13 mg/kg): 35.46%
- Tumor Weight ([1]; dose 13 mg/kg): 1.03 ± 0.18 g
- Tumor Volume (mm3) (d 1) ([1]; dose 25 mg/kg): 103.29 ± 29.09 mm3
- Tumor Volume (mm3) (d30) ([1]; dose 25 mg/kg): 841.92 ± 385.16 mm3
- Relative Tumor Proliferation Rate (T/C) ([1]; dose 25 mg/kg): 58.38
- Relative Tumor Volume (RTV) ([1]; dose 25 mg/kg): 9.35 ± 5.89
- Inhibition Rate (%) ([1]; dose 26 mg/kg): 48.96%
- Tumor Weight ([1]; dose 26 mg/kg): 0.82 ± 0.34 g
- Tumor Volume (mm3) (d 1) ([1]; dose 50 mg/kg): 104.43 ± 23.09 mm3
- Tumor Volume (mm3) (d30) ([1]; dose 50 mg/kg): 677.35 ± 237.77 mm3
- Relative Tumor Proliferation Rate (T/C) ([1]; dose 50 mg/kg): 41.81
- Relative Tumor Volume (RTV) ([1]; dose 50 mg/kg): 6.69 ± 2.56
- Inhibition Rate (%) ([1]; dose 52 mg/kg): 57.54%
- Tumor Weight ([1]; dose 52 mg/kg): 0.68 ± 0.18 g
- Body Weight (g) (d1) ([1]; 13 mg/kg): 19.62 ± 1.30 g
- Body Weight (g) (d 15) ([1]; 13 mg/kg): 22.52 ± 0.57 g
- Body Weight (g) (d1) ([1]; 26 mg/kg): 19.58 ± 0.63 g
- Body Weight (g) (d 15) ([1]; 26 mg/kg): 22.28 ± 0.66 g
- Body Weight (g) (d1) ([1]; 52 mg/kg): 20.00 ± 0.60 g
- Body Weight (g) (d 15) ([1]; 52 mg/kg): 22.42 ± 1.66 g
- Inhibition Rate (tumor growth inhibition rate) [2, 8]: 24.35%
- Relative Tumor Proliferation Rate (T/C) [2, 8]: 68.36%
- Relative Tumor Volume (RTV) [2, 8]: 10.68 ± 2.47
- Tumor Volume (d 1) [2, 8]: 114.53 ± 6.52 mm3
- Tumor Volume (d 30) [2, 8]: 1217.28 ± 267.06 mm3
- Tumor Weight [2, 8]: 1.76 ± 0.20 g
- Inhibition Rate (tumor growth inhibition rate) [2, 9]: 52.01%
- Relative Tumor Proliferation Rate (T/C) [2, 9]: 50.12%
- Relative Tumor Volume (RTV) [2, 9]: 7.83 ± 2.97
- Tumor Volume (d 1) [2, 9]: 112.00 ± 10.40 mm3
- Tumor Volume (d 30) [2, 9]: 860.48 ± 286.44 mm3
- Tumor Weight [2, 9]: 1.11 ± 0.54 g
- Inhibition Rate (tumor growth inhibition rate) ([2]; MDA-MB-231, 50 mg/kg (medium dose) i.g. 30 days, listed as isovaleryl spiramycin III): 21.01%
- Inhibition Rate (tumor growth inhibition rate) [2, 10]: 62.93%
- Relative Tumor Proliferation Rate (T/C) [2, 10]: 35.27%
- Relative Tumor Volume (RTV) [2, 10]: 5.51 ± 2.72
- Tumor Volume (d 1) [2, 10]: 115.76 ± 7.04 mm3
- Tumor Volume (d 30) [2, 10]: 647.02 ± 338.62 mm3
- Tumor Weight [2, 10]: 0.86 ± 0.44 g
- tumor volume and relative tumor volume compared with the model group ([2]; MDA-MB-231, low, medium and high doses, P<0.05): significantly lower
